Paper PMC11944986, “Parenteral Nanoemulsion for Optimized Delivery of GL-II-73 to the Brain—Comparative In Vitro Blood–Brain Barrier and In Vivo Neuropharmacokinetic Evaluation” (Pharmaceutics, 2025)
Converted amounts (≈) assume the structure as drawn. “Also recorded” adds a separate entry of the source.

Legend:
[1] = Solubility of GL-II-73 in various media, shake flask method; type: physicochemical; conditions: thermodynamic from solid
Procedure: The solubility of GL-II-73 was investigated in various media using the shake flask method. In brief, GL-II-73 was added in excess and mixed overnight on the vortex, followed by centrifugation to remove any excess of undissolved drug. The supernatants were then diluted in methanol and GL-II-73 content was determined by the LC/MS-MS method.
A liquid chromatographic system, the Accela 1000 (Thermo Fisher Scientific, San Jose, CA, USA), which includes a quaternary pump and an autosampler, was used for chromatographic analyses. All runs were performed with an XTERRA® MS C18 column (150 mm × 2.1 mm, 3.5 µm; Waters, Dublin, Ireland) maintained at 25 °C. Samples were stored in the autosampler temperature-controlled compartment at 8 °C. Isocratic elution was performed with a mixture of acetonitrile and 0.1% aqueous formic acid (60:40, v/v) at a flow rate of 300 µL/min. The total analysis time was 4.5 min. Mass spectrometric analyses were performed using a TSQ Quantum Access MAX (Thermo Fisher Scientific, Waltham, MA, USA) triple-quadrupole spectrometer equipped with a heated electrospray ionization (HESI) source. Operating conditions of the MS were optimized as follows: the spray voltage was set to 4000 V, with a skimmer offset of 0 V; the evaporator and capillary temperatures were set to 350 °C and 300 °C, respectively; nitrogen was used as both the nebulizer and auxiliary gas, with flow rates of 50 and 10 arbitrary units, respectively; and the collision gas pressure in q2 was maintained at 1.4 mTorr of argon. Data acquisition was performed with Selected Reaction Monitoring (SRM) in positive scan mode. The [M + H]^+ transitions m/z of SRM were 387.2 → 342.2 (CE 21 V), 373.1 → 314.0 (CE 29 V), and 347.0 → 302.0 (CE 28 V) for GL-II-73, MP-III-022, and SHI-I-048A (as internal standard), respectively. The Thermo Xcalibur 2.1 software was used for data acquisition.

[2] = system: in vitro model of the blood–brain barrier based on human induced pluripotent stem cell-derived microvascular endothelial cells, astrocytes, and pericytes; assay: In vitro BBB permeability test (iCell Blood-Brain Barrier Kit, tricellular model); type: in vitro ADME; conditions: Pe of nanoemulsion vs solution
From the text: The iCell® Blood-Brain Barrier Kit (FUJIFILM Cellular Dynamics, Inc., Madison, WI, USA) contained the following: iCell Astrocytes, iCell BMEC (Brain Microvascular Enothelial Cells), iCell Pericytes, iCell Astrocytes & iCell Pericytes Medium, iCell BMEC Maintenance Medium, and iCell Plating Supplement 500×. […]
The iCell® Blood-Brain Barrier Kit (FUJIFILM Cellular Dynamics, Madison, WI, USA) contained astrocytes, pericytes, and brain microvascular endothelial cells. […] For comparison, the contribution of the carrier itself was evaluated using a GL-II-73 solution in ultrapure water.
The transendothelial electrical resistance (TEER) parameter was used to verify the integrity of the barrier. […] The measured TEER values were corrected with TEER values from wells with empty filters and the medium. The final TEER values (Ω × cm^2) were calculated by adjusting the corrected TEER values to the filter surface. […] For this purpose, 100 µL was taken from the basolateral side (containing 1 mL iCell Maintenance Medium) to be analyzed by LC/MS-MS. […]
The Pe parameter (permeability coefficient; cm/min) was calculated as described earlier [19, 20] and used to evaluate the rate and the effectiveness of GL-II-73 transport through the BBB. […]
The Pe value was determined by dividing the Pse values by the surface area of the membrane of the insert (cm^2).

[3] = In vivo neuropharmacokinetic study, plasma and brain, intraperitoneal administration; parameters: species or system Sprague Dawley rats; conditions: rat; for availability in the brain (AUC0–36) higher after nanoemulsion compared to the solution: intraperitoneal administration; for AUC 0-36: brain
Procedure: The neuropharmacokinetic study was performed after intraperitoneal administration of the optimized nanoemulsion (NE4) or a 2 mg/mL GL-II-73 solution (solvent consisting of 14% (w/v) propylene glycol and 1% (w/v) polysorbate 80 in ultrapure water). Female Sprague Dawley rats, approximately two months old and weighing 160–200 g, were housed four per cage. The animal room was kept at a temperature of 22 ± 1 °C and a relative humidity of 40–70%. The alternation of light and darkness took place in a 12 h rhythm (light at 6:00 a.m.) with an illumination of 120 lx.
The test animals were divided into two groups of 27 rats each (3 animals per time point). One group received the GL-II-73 solution, the other group the GL-II-73 nanoemulsion, each at a dose of 10 mg/kg. At predefined intervals (5 min, 15 min, 30 min, 1 h, 2 h, 4 h, 8 h, 16 h, and 36 h), the animals were anesthetized with ketamine hydrochloride 90 mg/kg (Ketamidor, Richter Pharma AG, Vienna, Austria) and blood and brain samples were taken. Blood was collected by cardiac puncture with heparinized syringes and centrifuged at 1000× g for 10 min (MiniSpin® plus centrifuge, Eppendorf, Hamburg, Germany) to separate plasma. The isolated brains were weighed and homogenized in 1 mL methanol using an ultrasonic probe. The homogenized brain samples were subsequently centrifuged at 3400× g for 20 min to collect the supernatants. Plasma and the supernatants of the brain homogenates were further purified by solid phase extraction using Oasis HLB cartridges (Waters Corporation, Milford, MA, USA). The cartridges were preconditioned with methanol and then with water prior to application of the sample and internal standard. […] The concentration of GL-II-73 and its metabolite MP-III-022 was quantified in the eluates by liquid chromatography–tandem mass spectrometry (LC-MS/MS).

Row | SMILES | solubility ([1]; MCT, oil or lipid) [mg/mL] | solubility ([1]; aqueous buffer, Phosphate buffer (pH 7.4)) [mg/mL] | solubility ([1]; benzyl alcohol, organic solvent or mixture) [mg/mL] | solubility ([1]; castor oil, oil or lipid) [mg/mL] | solubility ([1]; fish oil, oil or lipid) [mg/mL] | solubility ([1]; isopropanol, organic solvent or mixture) [mg/mL] | solubility ([1]; methanol, organic solvent or mixture) [mg/mL] | solubility ([1]; simulated gastric fluid, 0.1 M HCl (pH 1.2)) [mg/mL] | solubility ([1]; soybean oil, oil or lipid) [mg/mL] | solubility ([1]; Water (pH 5.2)) [mg/mL] | Permeability of GL-II-73 through the BBB, nanoemulsion relative to solution [2] | availability in the brain (AUC0–36) higher after nanoemulsion compared to the solution [3] [%] | sum of brain AUC0-36 values for the parent molecule and its metabolite, nanoformulation compared to the solution ([3]; systemic administration) | AUC 0-36 ([3]; metabolite MP-III-022 after 10 mg/kg GL-II-73 nanoemulsion NE4 i.p.) [ng·h/g] | AUC 0-36 ([3]; metabolite MP-III-022 after 10 mg/kg GL-II-73 solution i.p.) [ng·h/g]
1 | C#Cc1ccc2c(c1)C(c1ccccc1F)=N[C@H](C)c1c(C(=O)N(C)C)ncn1-2 [GL-II-73] | 4.49 ± 0.148 (≈ 11.6 mM) | 0.951 ± 0.0414 (≈ 2.46 mM) | > 534 | 2.82 ± 0.184 (≈ 7.3 mM) | 2.4 ± 0.331 (≈ 6.2 mM) | 131 (≈ 339 mM) | > 1470 | 5.37 ± 0.195 (≈ 13.9 mM) | 3.06 ± 0.137 (≈ 7.91 mM) | 1 ± 0.0399 (≈ 2.59 mM) | twice as high; also recorded: more than twofold higher | 24 | one-third higher |  | 
2 | C#Cc1ccc2c(c1)C(c1ccccc1F)=N[C@H](C)c1c(C(=O)NC)ncn1-2 [MP-III-022] |  |  |  |  |  |  |  |  |  |  |  | 61 |  | 167.36 ± 70.56 | 103.75 ± 2.05
